Test results from ChEMBL document CHEMBL1944613, “Cloning, characterization and sulfonamide inhibition studies of an α-carbonic anhydrase from the living fossil sponge Astrosclera willeyana” (Bioorg Med Chem, 2012).

Target: T1, Astrosclerin-3 (Astrosclera willeyana, UniProt A6YCJ1)
T1 sequence (A6YCJ1 whole entry): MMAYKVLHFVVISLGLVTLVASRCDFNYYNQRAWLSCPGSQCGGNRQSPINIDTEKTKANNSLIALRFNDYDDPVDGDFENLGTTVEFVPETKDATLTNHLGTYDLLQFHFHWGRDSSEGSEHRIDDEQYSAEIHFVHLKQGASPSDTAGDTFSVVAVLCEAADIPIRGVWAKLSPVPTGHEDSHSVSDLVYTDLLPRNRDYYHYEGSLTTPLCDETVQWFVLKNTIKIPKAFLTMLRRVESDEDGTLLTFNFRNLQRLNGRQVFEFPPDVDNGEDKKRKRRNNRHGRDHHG
Description: Inhibition of GST-tagged astrosclera willeyana Astrosclerin-3 expressed in Escherichia coli after 15 mins preincubation by stopped flow CO2 hydration assay

First: CCN[C@H]1CN(CCCOC)S(=O)(=O)c2sc(S(N)(=O)=O)cc21 [BRINZOLAMIDE]
Second: Nc1c(F)cc(S(=O)(=O)Nc2nnc(S(N)(=O)=O)s2)cc1Cl
The Ki of the first is 99-fold higher: 0.278 µM for the first, 0.0028 µM for the second.

Nc1c(I)cc(S(N)(=O)=O)cc1I and Nc1c(Br)cc(S(N)(=O)=O)cc1Br are within 1.5-fold of each other in Ki: 0.879 µM for the first, 0.965 µM for the second.

Going from NS(=O)(=O)c1nnc(NS(=O)(=O)c2ccccc2)s1 [BENZOLAMIDE] to Nc1ccc(S(=O)(=O)Nc2nnc(S(N)(=O)=O)s2)cc1, the Ki falls from 0.032 µM to 0.0039 µM (8.2-fold).

Going from Cn1nc(S(N)(=O)=O)sc1=N to Cc1ccc(S(N)(=O)=O)cc1 [P-TOLUENESULFONAMIDE], the Ki rises from 0.393 µM to 0.675 µM (1.7-fold). The first binds more tightly here.

Compared with NS(=O)(=O)c1ccc(C(=O)O)cc1 [CARZENIDE], Nc1ccc(S(N)(=O)=O)cc1 [SULFANILAMIDE] is 6.4-fold higher in Ki: 1.21 µM for the first, 7.7 µM for the second.

First: NS(=O)(=O)c1ccc(CCO)cc1
Second: NS(=O)(=O)c1ccc(CO)cc1
The Ki of the first is 3.1-fold lower: 1.38 µM for the first, 4.26 µM for the second.

NCCc1ccc(S(N)(=O)=O)cc1 and NCc1ccc(S(N)(=O)=O)cc1 [MAFENIDE] are within 1.5-fold of each other in Ki: 0.715 µM for the first, 0.973 µM for the second.

Nc1ccc(S(N)(=O)=O)cc1Cl and Nc1ccc(S(N)(=O)=O)cc1F are within 1.5-fold of each other in Ki: 0.884 µM for the first, 0.89 µM for the second.

Going from Nc1ccc(S(=O)(=O)NCCc2ccc(S(N)(=O)=O)cc2)cc1 to NS(=O)(=O)c1ccc(CCNC(=O)c2ccc(S(N)(=O)=O)cc2)cc1, the Ki rises from 0.016 µM to 0.034 µM (2.1-fold). The first binds more tightly here.

First: Nc1nccc(Nc2ccc(S(N)(=O)=O)cc2)n1
Second: NNc1ccc(S(N)(=O)=O)cc1
The Ki of the first is 110-fold lower: 0.054 µM for the first, 6.08 µM for the second. The first binds more tightly here.

First: Cc1ccc(-c2cc(C(F)(F)F)nn2-c2ccc(S(N)(=O)=O)cc2)cc1 [CELECOXIB]
Second: NS(=O)(=O)c1ccc(S(=O)(=O)Nc2cccc3c(Cl)c[nH]c23)cc1
The Ki of the first is 1.7-fold higher: 0.732 µM for the first, 0.423 µM for the second. The second binds more tightly here.

Compared with NNc1ccccc1S(N)(=O)=O, O=C1NS(=O)(=O)c2ccccc21 [SACCHARIN] is 12-fold lower in Ki: 8.85 µM for the first, 0.751 µM for the second.

Compound CC1(C)O[C@@H]2[C@@H](CO[C@@]3(COS(N)(=O)=O)OC(C)(C)O[C@@H]23)O1 [TOPIRAMATE] has a Ki of 0.038 µM.
